Experimental findings from PubChem BioAssay (NCI) are described below.

Several values for one entry are separate records, joined by “and”; a condition that tells them apart may be missing. Equal entries are not always repeated.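 Method: 48-hour compound exposure of cells in 96-well plates, five concentrations, linear interpolation of endpoints. GI50 = concentration required for 50% inhibition of growth. TGI: concentration producing complete growth inhibition.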

Among the test systems are A498 renal; HOP-62 NSCLC; M14 melanoma; MALME-3M melanoma; NCI-H460 lung; OVCAR-8 ovarian; SF-295 CNS; SK-MEL-28 melanoma; UO-31 renal.
What all share (assay): growth of human tumour cells (NCI), 48 h

In the case of `CC(=O)OC1C2CCC3CC2C2(SCCS2)C31` (configuration not stated), the TGI with A498 renal, with HOP-62 NSCLC, in the assay with M14 melanoma, in the assay on MALME-3M melanoma, with NCI-H460 lung and in the assay with OVCAR-8 ovarian was greater than 100 µM each time. The TGI in the assay with SF-295 CNS, in the assay with SK-MEL-28 melanoma and in the assay with UO-31 renal was greater than 100 µM throughout.
Turning to `CSCSCC(CO)NC(=O)/C=C\c1c(C)[nH]c(=O)[nH]c1=O` (configuration not stated), the TGI in the assay on A498 renal turned out to be 229 µM; with HOP-62 NSCLC, 246 µM; in the assay on MALME-3M melanoma, 76.6 µM; in the assay with NCI-H460 lung, 109 µM; in the assay on OVCAR-8 ovarian, 89.9 µM; with SF-295 CNS, 209 µM. Moreover, the TGI with SK-MEL-28 melanoma was found to be 219 µM; with UO-31 renal, 126 µM. For the same compound, the GI50 in the assay with SF-295 CNS was 62.1 µM.
In the case of `O=C(O)C12C=CC(C1)c1ccccc12` (configuration not stated), the TGI in the assay with A498 renal, in the assay with HOP-62 NSCLC, with M14 melanoma, in the assay on MALME-3M melanoma, in the assay with NCI-H460 lung and in the assay with OVCAR-8 ovarian was greater than 100 µM each time. The TGI with SF-295 CNS, with SK-MEL-28 melanoma and in the assay on UO-31 renal was greater than 100 µM in each case.
In the case of `COc1cccc(C2C(C#N)=C(N)Oc3cc(OCCCCCC[P+](c4ccccc4)(c4ccccc4)c4ccccc4)ccc32)c1` (configuration not stated), the GI50 with A498 renal was 1.03 µM; in the assay on HOP-62 NSCLC, 1.62 µM; with SF-295 CNS, 1.58 µM; in the assay with SK-MEL-28 melanoma, 0.477 µM; with UO-31 renal it was 1.91 µM. In addition, the TGI stood at 2.45 µM in the assay on A498 renal; 4.16 µM with HOP-62 NSCLC; 3.19 µM in the assay on SF-295 CNS; 1.69 µM in the assay on SK-MEL-28 melanoma; 4.69 µM in the assay on UO-31 renal.
For the compound `N#Cc1nc(CN2C(=O)c3ccccc3C2=O)oc1N`, the TGI in the assay on A498 renal, with HOP-62 NSCLC, in the assay with M14 melanoma, with MALME-3M melanoma, in the assay on NCI-H460 lung and in the assay on OVCAR-8 ovarian was greater than 100 µM in each case. The TGI in the assay on SF-295 CNS and in the assay on SK-MEL-28 melanoma was greater than 100 µM throughout.
Regarding `O=C1OC2(CCCCC2)C(Oc2ccc(Cl)cc2)=C1F`, the TGI in the assay on A498 renal is greater than 100 µM; in the assay on HOP-62 NSCLC, greater than 100 µM; in the assay on M14 melanoma, greater than 100 µM; in the assay on MALME-3M melanoma, 51.6 µM; in the assay on NCI-H460 lung it was greater than 100 µM; in the assay with OVCAR-8 ovarian, greater than 100 µM. The results for the TGI in the assay with SF-295 CNS, in the assay with SK-MEL-28 melanoma and with UO-31 renal were greater than 100 µM, 81.5 µM and greater than 100 µM, respectively.
Turning to `CCCCn1c(-c2ccccc2)cs/c1=N\NC(=O)Cn1c(C)nc2ccccc21`, the TGI in the assay with A498 renal, in the assay on HOP-62 NSCLC, in the assay on M14 melanoma, in the assay with MALME-3M melanoma, in the assay on NCI-H460 lung and in the assay with OVCAR-8 ovarian was greater than 100 µM each time. Moreover, the TGI in the assay on SF-295 CNS and with UO-31 renal was greater than 100 µM throughout.
Turning to `Cc1c2cc[n+](C)cc2c(C)c2c1[nH]c1ccc(OCC(F)(F)F)cc12`, the GI50 in the assay on A498 renal was 47 µM and > 100 µM; in the assay with M14 melanoma, 11.6 µM and > 94.3 µM; with SK-MEL-28 melanoma it was 5.31 µM and > 33.4 µM; with UO-31 renal, 36.6 µM and > 100 µM. For the same compound, the TGI is greater than 100 µM in the assay on A498 renal; greater than 100 µM in the assay with M14 melanoma; 8.25 µM in the assay with MALME-3M melanoma; greater than 100 µM with OVCAR-8 ovarian; 2.22 µM in the assay with SF-295 CNS; greater than 100 µM in the assay on SK-MEL-28 melanoma. Also, in the assay on UO-31 renal, the TGI was greater than 100 µM.
As for `C/C(N=NS(=O)(=O)c1c(C)cc(C)cc1C)=C1\C=CC=CN1O`, the TGI in the assay with A498 renal, with HOP-62 NSCLC, with M14 melanoma, with NCI-H460 lung, with OVCAR-8 ovarian and with SF-295 CNS was greater than 100 µM in each case. For the same compound, the TGI in the assay with SK-MEL-28 melanoma and with UO-31 renal was greater than 100 µM throughout.
Take `C=CC(C)(C)/C(=C\CO[Si](C(C)C)(C(C)C)C(C)C)C(=O)N(C)c1ccccc1I`: the TGI with A498 renal was determined as 46 µM; in the assay with HOP-62 NSCLC, 35.8 µM; in the assay with M14 melanoma it was 33.6 µM; in the assay on NCI-H460 lung, 28.1 µM; with OVCAR-8 ovarian, 28 µM; in the assay on SF-295 CNS, 28.8 µM. For the same compound, the TGI with SK-MEL-28 melanoma stood at 29.4 µM; with UO-31 renal it was 25.9 µM.
Regarding `C=C1C(=O)OC2C[C@@]3(C)CCCC(=C)C3CC12` (some centres not stated), the TGI was determined as 19.2 µM in the assay with A498 renal; 34.9 µM in the assay on HOP-62 NSCLC; 20.6 µM in the assay on M14 melanoma; 13.4 µM in the assay with MALME-3M melanoma; 18.1 µM in the assay with NCI-H460 lung; 24.6 µM with OVCAR-8 ovarian. For the same compound, the TGI was determined as 23.6 µM with SF-295 CNS, 24 µM in the assay with SK-MEL-28 melanoma and 17.1 µM with UO-31 renal.
For `O=Cc1c2c(cc3c1CC1(C3)Cc3cc4c(c(C=O)c3C1)CCC4)CCC2`, the TGI in the assay on A498 renal is 84.7 µM; with HOP-62 NSCLC, 51.4 µM; with M14 melanoma, greater than 100 µM; in the assay with MALME-3M melanoma, 89.3 µM; in the assay with OVCAR-8 ovarian, greater than 100 µM; in the assay on SF-295 CNS it was greater than 100 µM. The compound also came in with a TGI with UO-31 renal of 6.38 µM.
Turning to `C=CCCCN(C(=O)c1ccccc1)c1ccc(C(=O)OC)o1`, the TGI in the assay with A498 renal, in the assay with HOP-62 NSCLC, with M14 melanoma, in the assay with MALME-3M melanoma, in the assay on NCI-H460 lung and in the assay on OVCAR-8 ovarian was greater than 100 µM in each case. In addition, the TGI in the assay on SF-295 CNS and in the assay on UO-31 renal was greater than 100 µM each time.
In the case of `CN1CCC(O)(OC(=O)C(c2ccccc2)C2(O)CCCC2)CC1` (configuration not stated), the TGI with A498 renal, in the assay on HOP-62 NSCLC, in the assay on M14 melanoma, with MALME-3M melanoma, in the assay on NCI-H460 lung and in the assay on OVCAR-8 ovarian was greater than 100 µM each time. Further, the TGI in the assay on SF-295 CNS and in the assay on SK-MEL-28 melanoma was greater than 100 µM each time.
As to `O=c1[nH]c(=S)[nH]c2c1CCCN2`, the TGI in the assay on HOP-62 NSCLC, in the assay with M14 melanoma, in the assay on MALME-3M melanoma, in the assay on OVCAR-8 ovarian, with SF-295 CNS and with SK-MEL-28 melanoma was greater than 100 µM throughout. The compound also showed a TGI with UO-31 renal greater than 100 µM.
`O=C(CCC(NC(=O)OCc1ccccc1)C(=O)OCc1ccccc1)Nc1cccc(OCc2ccccc2)c1` (configuration not stated): the TGI with HOP-62 NSCLC is 60.1 µM; in the assay on M14 melanoma, 38.2 µM; in the assay with MALME-3M melanoma, 56.4 µM; with NCI-H460 lung, 53.3 µM; in the assay on OVCAR-8 ovarian, 78.6 µM; with SF-295 CNS, greater than 100 µM. Further, the TGI with SK-MEL-28 melanoma is greater than 100 µM.
With `NCCCNCCSP(=O)(O)O`, the TGI with A498 renal was greater than 75 µM; in the assay with HOP-62 NSCLC it was greater than 750 µM; in the assay with MALME-3M melanoma, greater than 726 µM; in the assay on NCI-H460 lung, greater than 750 µM; in the assay on OVCAR-8 ovarian, greater than 511 µM; in the assay on SF-295 CNS, greater than 750 µM. Moreover, the TGI in the assay on SK-MEL-28 melanoma and with UO-31 renal was greater than 750 µM each time.
Turning to `O=Cn1c2ccccc2c2ccccc21`, the TGI in the assay on A498 renal, with HOP-62 NSCLC, in the assay with M14 melanoma, in the assay on MALME-3M melanoma, with NCI-H460 lung and in the assay with OVCAR-8 ovarian was greater than 100 µM each time. For the same compound, the TGI in the assay with SF-295 CNS, in the assay on SK-MEL-28 melanoma and with UO-31 renal was greater than 100 µM in each case.
As for `C#CC(O)/C=C/C(O)CCCC(O)CC#CC(O)C#CCCCCC(O)/C=C/CCCC(=O)CCCCCCCCCCCCCCCC(O)C(O)C#CC(=O)O` (configuration not stated), the TGI in the assay with HOP-62 NSCLC, in the assay on M14 melanoma, in the assay on MALME-3M melanoma, with NCI-H460 lung, in the assay on OVCAR-8 ovarian and with SF-295 CNS was greater than 25 µM throughout. The TGI in the assay on SK-MEL-28 melanoma and with UO-31 renal was greater than 25 µM in each case.
As for `c1ccc(C2N=C(c3ccccn3)C(c3ccccn3)=NC2c2ccccc2)cc1` (configuration not stated), the TGI with A498 renal, in the assay with HOP-62 NSCLC, with M14 melanoma, in the assay with MALME-3M melanoma, with NCI-H460 lung and in the assay on OVCAR-8 ovarian was greater than 100 µM throughout. Besides, the TGI in the assay with SF-295 CNS, in the assay with SK-MEL-28 melanoma and in the assay with UO-31 renal was greater than 100 µM each time.
For `CCOC(=O)/C=C(/C(=O)OCC)n1cc(C)c(=O)n(Cc2cn(CCCCOC(C)=O)nn2)c1=O`, the TGI was greater than 100 µM with HOP-62 NSCLC; 34.1 µM in the assay with NCI-H460 lung; 25.8 µM in the assay on OVCAR-8 ovarian; greater than 100 µM in the assay on SF-295 CNS; 35.2 µM with SK-MEL-28 melanoma; 28.3 µM in the assay with UO-31 renal.
For `COc1ccc(C2C3=C(COC3=O)Oc3cc4c(cc32)OCO4)cc1OC` (configuration not stated), the TGI in the assay on A498 renal is 8.18 µM; with HOP-62 NSCLC, greater than 96.9 µM; in the assay with M14 melanoma it was greater than 100 µM; with MALME-3M melanoma, greater than 100 µM; in the assay on NCI-H460 lung it was greater than 100 µM; in the assay with OVCAR-8 ovarian it was greater than 43.3 µM. Moreover, the TGI in the assay with SF-295 CNS is 24 µM; with SK-MEL-28 melanoma, greater than 100 µM; with UO-31 renal, greater than 100 µM.
For the compound `CCOC(=O)c1c(SC(=O)c2ccc(Cl)cc2)n(-c2ccccc2)c(=S)n(-c2ccccc2)c1=O`, the TGI in the assay on A498 renal, in the assay on HOP-62 NSCLC, with M14 melanoma, in the assay with MALME-3M melanoma, in the assay with NCI-H460 lung and in the assay on OVCAR-8 ovarian was greater than 100 µM each time. For the same compound, the TGI in the assay with SF-295 CNS and in the assay on SK-MEL-28 melanoma was greater than 100 µM throughout.
